US20230248745A1, “SILVER ENHANCED CANNABINOID ANTIBIOTICS” (priority 2020, published 2023)
“Also recorded” adds a separate entry of the source. Like-named read-outs stand apart in the source and are kept apart here.

Tests used:
MRSA (strain USA 300) = type: cell-based, Methicillin-resistant Staphylococcus aureus; settings: for antibiotic effect of combination compared with silver nanoparticles alone: cannabinoid 2% + silver nanoparticles 2% silver w/w to PVA, films or coated catheter sections; for inhibition of bacterial growth (ring): single agent at 2% w/w to PVA, films and coated catheter sections, 24 hours
Protocol: PVA films were made by solvent casting using 33 μl drops of 2.5% PVA (88% hydrolyzed, 125 KDa molecular weight) mixed with CBC, CBG or CBGA (2% w/w to PVA). […] 3 mm sections of a urethral catheter (BARDEX® BARD®) were cut and coated with the same 33 μl volume of PVA/Silver/cannabinoid used to make films. Films and coated catheter sections were dried overnight in the dark. Five cavities were created in the LB agar plates containing MRSA (strain USA 300) at OD600 of 0.005. PVA films and catheters coated with PVA films were then placed in the cavities and moistened with 20 μL of deionized distilled water. Plates were incubated for 24 hours at 37° C.

E. coli strain K12 = assay: Checkerboard assay, FICI of cannabinoid/silver combinations; type: cell-based, Escherichia coli; settings: for FICI Silver Nanoparticles: Silver Nanoparticles in combination with the cannabinoid; for FICI Silver Sulfate: Silver Sulfate in combination with the cannabinoid
Protocol: (§1) Antibacterial growth was measured using a checkerboard analysis or qualitatively using agar plates with zones of inhibition. Viability was measured by the number of colony forming units (CFU) over time.
(§2) Using checkerboard analysis, the fractional inhibitory concentration index (FICI) was calculated for the 96-well plate test to illustrate synergy.
(§3) Escherichia coli (E. coli), strain K12, was cultured in Luria-Bertani (LB) medium and inoculated at 37 C.
(§4) Cannabinoids or silver (expressed as the concentration of silver not the salt) were serially diluted 2-fold across the 96-well plate (Costar, catalog no. 3370) followed by addition of 100 μL of bacterial cultures with an OD600 of 0.0025. […] Wells turbidity were then analyzed using Varioskan™ microplate reader.
(§5) FICI was calculated in a checkerboard assay based on the turbidity of the wells. FIC of each agent was determined as the ratio of the minimal inhibitory concentration MIC of one agent in the presence of the other agent to the MIC of that agent alone. FICI was consequently computed as the sum of each agent's FIC.

MRSA (strain USA300) [1] = assay: microbe, parasite or virus in culture; type: cell-based, Methicillin-resistant Staphylococcus aureus; settings: Staphylococcus aureus; agent alone; silver expressed as silver; read-out: MIC
Source text: In therapeutic applications, synergy between active ingredients occurs when an observed combined therapeutic effect is greater than the sum of therapeutic effects of individual active ingredients, or a new therapeutic effect is produced that the active ingredients could not produce alone. […] In this context, the enhancement of therapeutic effect may take the form of increased efficacy or potency and/or decreased adverse effects. The synergistic effect may be mediated in whole or in part by the pharmacokinetics and/or pharmacodynamics of the active ingredients in a subject, so that the amount and proportion of the ingredients in the formulation may be synergistic in vivo. This in vivo synergy may be effected with a formulation that includes the active ingredients in amounts and proportions that are also synergistic in in vitro assays of efficacy. As used herein, the term “synergistically effective amounts” accordingly refers to amounts that are synergistic in vivo and/or in vitro. A numeric quantification of synergy is often expressed as a fractional inhibitory concentration index (FICI), which represents the sum of the fractional inhibitory concentrations (FICs) of each drug tested, where the FIC is determined for each drug by dividing the minimum inhibitory concentration (MIC, the lowest concentration of the drug which prevents visible growth of the bacterium in a standard in vitro assay—standard colorometric assay based on resazurin) of each drug when used in combination by the MIC of each drug when used alone. In very general terms, a FICI lower or higher than 1 indicates positively correlated activity (at least additive or potentiation) or an absence of positive interactions, respectively. […] (as described and used by Joung D K et al. and Rakoliya K et al.)
as §4

MRSA (strain USA300) [2] = assay: Kill-curve test (CFU over time); type: cell-based, Methicillin-resistant Staphylococcus aureus; settings: for combined inhibitory effects compared to ½×MIC combinations: cannabinoid ¼×MIC + AgNPs
Protocol: as §1
(§6) MRSA strain, USA300, was cultured in Luria-Bertani (LB) medium and inoculated at 37 C.
(§7) For each test tube, 1 mL of culture at OD600 of 0.005 was added to 1 mL of LB medium containing antibiotics to reach target sub-MIC concentrations of each compound. Samples of 100 μL was extracted from each tube at the determined time stamps followed by 10-fold serial dilutions. 10 μL of each dilution was then added on the LB agar plates that were subsequently incubated for 24 hours. Colonies were inspected and results quantified as log CFU/mL.

E. coli (strain K12) [3] = assay: Kill-curve test (CFU over time); type: cell-based, Escherichia coli; settings: for growth inhibition: 1.25 mg/L and 0.625 mg/L (lower concentrations)
Protocol: as §1, §3, §7

MRSA (USA300) = assay: Checkerboard assay, FICI of cannabinoid/silver combinations; type: cell-based, Methicillin-resistant Staphylococcus aureus
Protocol: as §1, §2, §6, §4, §5

MRSA = assay: Agar plate test of CBGA with silver nanoparticles; type: cell-based, Methicillin-resistant Staphylococcus aureus
Protocol: Four LB agar plates were prepared with MRSA culture at OD600 of 0.005. (FIG. 4) Each plate contained different concentrations of CBGA (no CBGA, ½ MIC, ¼ MIC, and ⅛ MIC). All plates were then divided into quadrants, each of which received 8 μL of AgNP at different concentrations from 20 mg/L serially diluted by 2-fold down to 2.5 mg/L in 0.2 mM sodium citrate.

E. coli (strain K12) [4] = settings: agent alone
Source text: In therapeutic applications, synergy between active ingredients occurs when an observed combined therapeutic effect is greater than the sum of therapeutic effects of individual active ingredients, or a new therapeutic effect is produced that the active ingredients could not produce alone. […] In this context, the enhancement of therapeutic effect may take the form of increased efficacy or potency and/or decreased adverse effects. The synergistic effect may be mediated in whole or in part by the pharmacokinetics and/or pharmacodynamics of the active ingredients in a subject, so that the amount and proportion of the ingredients in the formulation may be synergistic in vivo. This in vivo synergy may be effected with a formulation that includes the active ingredients in amounts and proportions that are also synergistic in in vitro assays of efficacy. […] A numeric quantification of synergy is often expressed as a fractional inhibitory concentration index (FICI), which represents the sum of the fractional inhibitory concentrations (FICs) of each drug tested, where the FIC is determined for each drug by dividing the minimum inhibitory concentration (MIC, the lowest concentration of the drug which prevents visible growth of the bacterium in a standard in vitro assay—standard colorometric assay based on resazurin) of each drug when used in combination by the MIC of each drug when used alone. […]

[5] = cannabinoid with silver nanoparticles
[6] = cannabinoid with silver sulfate
[7] = cannabinoid ½×MIC + AgNP 1/160×MIC (0.25 mg/L)
[8] = cannabinoid ½×MIC + AgNP ⅛×MIC (5 mg/L)
[9] = cannabinoid ½×MIC + silver nitrate 1 mg/L
[10] = cannabinoid ½×MIC + silver nitrate 5 and 8 mg/L
[11] = 8 mg/L cannabinoid + 2.5, 1.25 and 0.625 mg/L AgSO4 (each)
[12] = Silver Nanoparticles in combination with the cannabinoid
[13] = Silver Nitrate in combination with the cannabinoid
[14] = cannabinoid with silver nitrate

| Compound | antibiotic effect of combination compared with silver nanoparticles alone (MRSA (strain USA 300)) | inhibition of bacterial growth (ring) (MRSA (strain USA 300)) | FICI Silver Nanoparticles (E. coli strain K12) | FICI Silver Sulfate (E. coli strain K12) | interaction (interpretation of FICI) (E. coli strain K12; [5]) | interaction (interpretation of FICI) (E. coli strain K12; [6]) | MIC (MRSA (strain USA300) [1]) | kill-curve effect (CFU) (MRSA (strain USA300) [2]) | time for which bactericidal effect persisted (MRSA (strain USA300) [2]) | MRSA growth by 24 hours (MRSA (strain USA300) [2]; cannabinoid alone at ½×MIC) | combined inhibitory effects compared to ½×MIC combinations (MRSA (strain USA300) [2]) | kill-curve effect (CFU) (MRSA (strain USA300) [2]; [7]) | kill-curve effect (CFU) (MRSA (strain USA300) [2]; [8]) | time through which bactericidal effect persisted (MRSA (strain USA300) [2]; [8]) | FICI (MRSA (USA300); [12]) | FICI (MRSA (USA300); [13]) | interaction (interpretation of FICI) (MRSA (USA300); [5]) | interaction (interpretation of FICI) (MRSA (USA300); [14]) | further results |
| --- | --- | --- | --- | --- | --- | --- | --- | --- | --- | --- | --- | --- | --- | --- | --- | --- | --- | --- | --- |
| CCCCCc1cc(O)c2c(c1)OC(C)(CCC=C(C)C)C=C2 (stereo not shown) [CBC, cannabichromene] | increased antibiotic effect | some level of inhibition | 0.73 | 0.63 | potentiation | potentiation | 8 µg/mL | nearly identical full bactericidal effect | 24 h | full bacterial growth had occurred; also recorded: returned to levels approximating that of 0×MIC treatment | weaker and less durable | strong bactericidal effect | full bactericidal effect | 24 h | 0.141 | 0.375 | synergistic | strongly synergistic | time of onset of bactericidal effect (MRSA (strain USA300) [2]): ≤ 2 h; duration of bacterial growth inhibition (MRSA (strain USA300) [2]; cannabinoid alone at ½×MIC): 6 h; duration of strong inhibition (MRSA (strain USA300) [2]; cannabinoid ¼×MIC + silver nitrate 1 mg/L): 6 h; kill-curve effect (CFU) (MRSA (strain USA300) [2]; cannabinoid ¼×MIC + silver nitrate 5 and 8 mg/L): Almost identical results; time of onset of bactericidal effect (MRSA (strain USA300) [2]; [8]): 2 h; effect at 24 hours (MRSA (strain USA300) [2]; [9]): strong inhibition of bacterial growth; kill-curve effect (CFU) (MRSA (strain USA300) [2]; [9]): complete bactericidal effect; time for which bactericidal effect remained (MRSA (strain USA300) [2]; [9]): 6 h; time of onset of bactericidal effect (MRSA (strain USA300) [2]; [9]): 2 h; kill-curve effect (CFU) (MRSA (strain USA300) [2]; [10]): fully bactericidal; time of onset of bactericidal effect (MRSA (strain USA300) [2]; [10]): 2 h; time through which bactericidal effect remained (MRSA (strain USA300) [2]; [10]): 24 h; time through which bacterial growth was inhibited (E. coli (strain K12) [3]): 24 h; time through which the effect persisted (E. coli (strain K12) [3]): 24 h; time to the reduction in E. coli CFU (E. coli (strain K12) [3]): ≤ 6 h; time through which E. coli growth was inhibited (E. coli (strain K12) [3]; [11]): 24 h; time to the reduction in E. coli CFU (E. coli (strain K12) [3]; [11]): ≤ 4 h; inhibitory effect on E. coli growth over 24 hours (E. coli (strain K12) [3]; cannabinoid alone, 8 mg/L): failed to achieve any inhibitory effect; inhibition of E. coli growth over 24 hours (E. coli (strain K12) [3]; cannabinoid alone, 16 mg/L): failed to achieve any inhibition; inhibition of E. coli growth (summary) (E. coli (strain K12) [3]; cannabinoid alone, concentrations up to 16 mg/L): fail to achieve any detectable inhibition |
| CCCCCc1cc(O)c(C/C=C(\C)CCC=C(C)C)c(O)c1C(=O)O [CBGA, cannabigerolic acid] | increased antibiotic effect | some level of inhibition | 0.73 | 0.75 | potentiation | potentiation | 4 µg/mL | nearly identical full bactericidal effect | 24 h | returned to levels approximating that of 0×MIC treatment | weaker and less durable | strong bactericidal effect | full bactericidal effect | 24 h | 0.375 | 0.53 | synergistic | partial synergy | antibiotic effect of combination compared with silver nitrate alone (MRSA (strain USA 300); cannabinoid 2% + silver nitrate 2% silver w/w to PVA): increased antibiotic effect; inhibition of MRSA growth (MRSA; CBGA at ½ MIC in the agar): strong inhibition of MRSA growth in all wells; antibiotic effect (MRSA; CBGA at ½ MIC in the agar + 20 mg/L silver nanoparticles): strongest antibiotic effect; inhibition of bacterial growth (darkening in the photo) (MRSA; CBGA at ⅛ MIC or ¼ MIC in agar + AgNP 2.5-20 mg/L): concentration dependent darkening |
| O=S(=O)([O-])[O-].[Ag+].[Ag+] [silver sulfate] |  |  |  |  |  |  |  |  |  |  |  |  |  |  |  |  |  |  | MIC (E. coli (strain K12) [4]): 2.5 µg/mL; growth inhibition (E. coli (strain K12) [3]; AgSO4 alone): very little inhibitory effects; growth inhibition (E. coli (strain K12) [3]; AgSO4 alone, listed as AgSO4): some initial growth inhibition; bactericidal effects (net reduction in bacterial CFU) (E. coli (strain K12) [3]; AgSO4 alone, 2.5 mg/L): no bactericidal effects; period of inhibition of E. coli growth (E. coli (strain K12) [3]; AgSO4 alone, 2.5 mg/L): 6 h; total increase in bacterial CFU at 24 hours (E. coli (strain K12) [3]; AgSO4 alone, 2.5 mg/L): approximately 1 log; inhibitory effect on E. coli growth (summary) (E. coli (strain K12) [3]; silver sulfate alone at 2.5 mg/L): weak inhibitory effect |
